Laboratory results published in patent US10106534B2 (CELGENE QUANTICEL RESEARCH, INC., priority 2014, dated 2018).

Key:
[1] = test system: KYSE-150 esophageal carcinoma cell line; test: In vitro cell-based assay: cellular proliferation via BrdU incorporation (ELISA); design: species or system human; conditions: Homo sapiens, KYSE-150, 168 hours compound incubation
In short: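 KYSE-150 cells (JMJD2C-amplified; SMAD4 and TP53 mutant), 2,000/well, were treated after overnight attachment with an 11-point series (100 μM to 2 nM) for 168 h. Proliferation was read by BrdU ELISA (2 h labelling, anti-BrdU-peroxidase, TMB, 450 nm) and IC50 fitted.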

JMJD2C = JMJD2C (Homo sapiens (Human), UniProt Q9H3R0); test: In vitro enzyme inhibition assay for JMJD2C activity (TR-FRET); type: biochemical
In short: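 Baculovirus JMJD2C (AA 2-372), 0.3 nM, with 300 nM biotin-H3K9me3 peptide and 2 μM α-ketoglutarate in HEPES pH 7.3 containing Fe(II) and ascorbate, 30 min at room temperature, 11-point dilutions. H3K9me2 product by TR-FRET (Eu-antibody/streptavidin-APC, 665/615 ratio); IC50 fitted.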

Chain of JMJD2C (Q9H3R0 2-372): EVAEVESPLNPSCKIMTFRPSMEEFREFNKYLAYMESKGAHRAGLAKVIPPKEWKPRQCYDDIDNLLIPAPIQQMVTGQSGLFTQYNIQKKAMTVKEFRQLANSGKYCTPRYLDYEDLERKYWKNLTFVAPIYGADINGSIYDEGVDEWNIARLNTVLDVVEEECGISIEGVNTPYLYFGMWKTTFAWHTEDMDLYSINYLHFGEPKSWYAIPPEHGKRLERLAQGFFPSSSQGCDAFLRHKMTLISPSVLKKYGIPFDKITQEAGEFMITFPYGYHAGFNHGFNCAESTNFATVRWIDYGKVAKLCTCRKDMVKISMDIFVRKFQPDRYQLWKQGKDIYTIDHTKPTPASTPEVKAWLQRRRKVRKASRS

Row | Structure (SMILES) | IC50 [1] [µM] | IC50 (JMJD2C) [µM]
1 | CN(c1ccc2c(c1)COC2)c1ccc2c(c1)OCC[C@H]2CNc1cnccc1C(=O)O [Example 127, 3-({[(4R)-7-[(1,3-dihydro-2-benzofuran-5-yl)(methyl)amino]-3,4-dihydro-2H-1-benzopyran-4-yl]methyl}amino)pyridine-4-carboxylic acid] | 0.1 to 1 | 0.1 to 1
2 | CN(c1ccc2c(c1)CCC2)c1ccc2c(c1)OCC[C@H]2CNc1cnccc1C(=O)O [Example 131, 3-({[(4R)-7-[(2,3-dihydro-1H-inden-5-yl)(methyl)amino]-3,4-dihydro-2H-1-benzopyran-4-yl]methyl}amino)pyridine-4-carboxylic acid] | ≤ 0.1 | 0.1 to 1
3 | CN(c1ccc2c(c1)COC2)c1ccc2c(c1)CCC[C@H]2CNc1cnccc1C(=O)O [Example 132, 3-({[(1R)-6-[(1,3-dihydro-2-benzofuran-5-yl)(methyl)amino]-1,2,3,4-tetrahydronaphthalen-1-yl]methyl}amino)pyridine-4-carboxylic acid] | ≤ 0.1 | 0.1 to 1
4 | CN(c1ccc2c(c1)CCC[C@H]2CNc1cnccc1C(=O)O)c1ccc2ccoc2c1 [Example 135, 3-({[(1R)-6-[(1-benzofuran-6-yl)(methyl)amino]-1,2,3,4-tetrahydronaphthalen-1-yl]methyl}amino)pyridine-4-carboxylic acid] | ≤ 0.1 | 0.1 to 1
5 | CN(c1ccc2c(c1)OCC[C@H]2CNc1cnccc1C(=O)O)c1ccc2occc2c1 [Example 136, 3-({[(4R)-7-[(1-benzofuran-5-yl)(methyl)amino]-3,4-dihydro-2H-1-benzopyran-4-yl]methyl}amino)pyridine-4-carboxylic acid] | ≤ 0.1 | 0.1 to 1
6 | CN(c1ccc2c(c1)OCC[C@H]2CNc1cnccc1C(=O)O)c1ccc2ccoc2c1 [Example 141, 3-({[(4R)-7-[(1-benzofuran-6-yl)(methyl)amino]-3,4-dihydro-2H-1-benzopyran-4-yl]methyl}amino)pyridine-4-carboxylic acid] | 0.1 to 1 | 0.1 to 1
7 | O=C(O)c1ccncc1NCC1OCCc2ccccc21 (stereo not shown) [Example 142, 3-[(3,4-dihydro-1H-2-benzopyran-1-ylmethyl)amino]pyridine-4-carboxylic acid] | > 10 | 0.1 to 1
8 | CN(c1ccc2c(c1)CCC[C@H]2CNc1cnccc1C(=O)O)c1cccs1 [Example 144, 3-({[(1R)-6-[methyl(thiophen-2-yl)amino]-1,2,3,4-tetrahydronaphthalen-1-yl]methyl}amino)pyridine-4-carboxylic acid] | ≤ 0.1 | 0.1 to 1
9 | CN(c1ccccc1)c1ccc2c(c1)CCOC2CNc1cnccc1C(=O)O (stereo not shown) [Example 146, 3-[({6-[methyl(phenyl)amino]-3,4-dihydro-1H-2-benzopyran-1-yl}methyl)amino]pyridine-4-carboxylic acid] | ≤ 0.1 | 0.1 to 1
10 | O=C(O)c1ccncc1NC[C@@H]1CCCc2cc(N(CCO)c3ccccc3)ccc21 [Example 147, 3-({[(1R)-6-[(2-hydroxyethyl)(phenyl)amino]-1,2,3,4-tetrahydronaphthalen-1-yl]methyl}amino)pyridine-4-carboxylic acid] | 0.1 to 1 | 0.1 to 1
11 | Cc1cccc(N(C)c2ccc3c(c2)OCC[C@H]3CNc2cnccc2C(=O)O)n1 [Example 148, 3-({[(4R)-7-[methyl(6-methylpyridin-2-yl)amino]-3,4-dihydro-2H-1-benzopyran-4-yl]methyl}amino)pyridine-4-carboxylic acid] | 0.1 to 1 | 0.1 to 1
12 | COc1cccc(N(C)c2ccc3c(c2)CCC[C@H]3CNc2cnccc2C(=O)O)c1 [Example 150, 3-({[(1R)-6-[(3-methoxyphenyl)(methyl)amino]-1,2,3,4-tetrahydronaphthalen-1-yl]methyl}amino)pyridine-4-carboxylic acid] | ≤ 0.1 | 0.1 to 1
13 | Cc1ccc(N(C)c2ccc3c(c2)OCC[C@H]3CNc2cnccc2C(=O)O)cc1F [Example 151, 3-({[(4R)-7-[(3-fluoro-4-methylphenyl)(methyl)amino]-3,4-dihydro-2H-1-benzopyran-4-yl]methyl}amino)pyridine-4-carboxylic acid] | ≤ 0.1 | 0.1 to 1
14 | CN(c1ccc2c(c1)OCC[C@H]2CNc1cnccc1C(=O)O)c1ccc(Cl)cn1 [Example 152, 3-({[(4R)-7-[(5-chloropyridin-2-yl)(methyl)amino]-3,4-dihydro-2H-1-benzopyran-4-yl]methyl}amino)pyridine-4-carboxylic acid] | 0.1 to 1 | 0.1 to 1
15 | CN(c1ccc2c(c1)CCC[C@H]2CNc1cnccc1C(=O)O)c1ccn(C)c(=O)c1 [Example 155, 3-({[(1R)-6-[methyl(1-methyl-2-oxo-1,2-dihydropyridin-4-yl)amino]-1,2,3,4-tetrahydronaphthalen-1-yl]methyl}amino)pyridine-4-carboxylic acid] | > 10 | 0.1 to 1
16 | CN(c1ccc(CO)cc1)c1ccc2c(c1)CCC[C@H]2CNc1cnccc1C(=O)O [Example 158, 3-({[(1R)-6-{[4-(hydroxymethyl)phenyl](methyl)amino}-1,2,3,4-tetrahydronaphthalen-1-yl]methyl}amino)pyridine-4-carboxylic acid] | 0.1 to 1 | 0.1 to 1
17 | CN(c1ccc(C2CC2)cc1)c1ccc2c(c1)CCC[C@H]2CNc1cnccc1C(=O)O [Example 161, 3-({[(1R)-6-[(4-cyclopropylphenyl)(methyl)amino]-1,2,3,4-tetrahydronaphthalen-1-yl]methyl}amino)pyridine-4-carboxylic acid] | ≤ 0.1 | 1 to 10
18 | COCCN(c1ccc(C2CC2)cc1)c1ccc2c(c1)CCC[C@H]2CNc1cnccc1C(=O)O [Example 163, 3-({[(1R)-6-[(4-cyclopropylphenyl)(2-methoxyethyl)amino]-1,2,3,4-tetrahydronaphthalen-1-yl]methyl}amino)pyridine-4-carboxylic acid] | ≤ 0.1 | 1 to 10
19 | CN(c1ccc(N2CCCC2)cc1)c1ccc2c(c1)CCC[C@H]2CNc1cnccc1C(=O)O [Example 167, 3-({[(1R)-6-{methyl[4-(pyrrolidin-1-yl)phenyl]amino}-1,2,3,4-tetrahydronaphthalen-1-yl]methyl}amino)pyridine-4-carboxylic acid] | ≤ 0.1 | 0.1 to 1
20 | Cc1cc(N(C)c2ccc3c(c2)CCC[C@H]3CNc2cnccc2C(=O)O)no1 [Example 171, 3-({[(1R)-6-[methyl(5-methyl-1,2-oxazol-3-yl)amino]-1,2,3,4-tetrahydronaphthalen-1-yl]methyl}amino)pyridine-4-carboxylic acid] | > 10 | 1 to 10
21 | COc1ccccc1N(C)c1ccc2c(c1)CCC[C@H]2CNc1cnccc1C(=O)O [Example 172, 3-({[(1R)-6-[(2-methoxyphenyl)(methyl)amino]-1,2,3,4-tetrahydronaphthalen-1-yl]methyl}amino)pyridine-4-carboxylic acid] | 0.1 to 1 | 0.1 to 1
22 | CN(c1ccncc1)c1ccc2c(c1)CCC[C@H]2CNc1cnccc1C(=O)O [Example 173, 3-({[(1R)-6-[methyl(pyridin-4-yl)amino]-1,2,3,4-tetrahydronaphthalen-1-yl]methyl}amino)pyridine-4-carboxylic acid] | > 10 | ≤ 0.1
23 | CN(c1ccc(C2=CCOCC2)cc1)c1ccc2c(c1)CCC[C@H]2CNc1cnccc1C(=O)O [Example 174, 3-({[(1R)-6-{[4-(3,6-dihydro-2H-pyran-4-yl)phenyl](methyl)amino}-1,2,3,4-tetrahydronaphthalen-1-yl]methyl}amino)pyridine-4-carboxylic acid] | ≤ 0.1 | 1 to 10
24 | CN(c1ccc(C2CCOCC2)cc1)c1ccc2c(c1)CCC[C@H]2CNc1cnccc1C(=O)O [Example 175, 3-({[(1R)-6-{methyl[4-(oxan-4-yl)phenyl]amino}-1,2,3,4-tetrahydronaphthalen-1-yl]methyl}amino)pyridine-4-carboxylic acid] | ≤ 0.1 | 1 to 10
25 | C=Cc1ccc(N(C)c2ccc3c(c2)OCC[C@H]3CNc2cnccc2C(=O)O)cc1 [Example 176, 3-({[(4R)-7-[(4-ethenylphenyl)(methyl)amino]-3,4-dihydro-2H-1-benzopyran-4-yl]methyl}amino)pyridine-4-carboxylic acid] | ≤ 0.1 | 0.1 to 1
26 | COc1ccc(N(C)c2ccc3c(c2)CCC[C@H]3CNc2cnccc2C(=O)O)cc1 [Example 177, 3-({[(1R)-6-[(4-methoxyphenyl)(methyl)amino]-1,2,3,4-tetrahydronaphthalen-1-yl]methyl}amino)pyridine-4-carboxylic acid] | ≤ 0.1 | 0.1 to 1
27 | COc1ccc(N(C)c2ccc3c(c2)OCC[C@H]3CNc2cnccc2C(=O)O)cc1 [Example 178, 3-({[(4R)-7-[(4-methoxyphenyl)(methyl)amino]-3,4-dihydro-2H-1-benzopyran-4-yl]methyl}amino)pyridine-4-carboxylic acid] | ≤ 0.1 | ≤ 0.1
28 | CN(c1ccc(N2CCCC2)cc1)c1ccc2c(c1)OCC[C@H]2CNc1cnccc1C(=O)O [Example 179, 3-({[(4R)-7-{methyl[4-(pyrrolidin-1-yl)phenyl]amino}-3,4-dihydro-2H-1-benzopyran-4-yl]methyl}amino)pyridine-4-carboxylic acid] | ≤ 0.1 | 0.1 to 1
29 | CN(c1ccc(N2CCC2)cc1)c1ccc2c(c1)CCC[C@H]2CNc1cnccc1C(=O)O [Example 180, 3-({[(1R)-6-{[4-(azetidin-1-yl)phenyl](methyl)amino}-1,2,3,4-tetrahydronaphthalen-1-yl]methyl}amino)pyridine-4-carboxylic acid] | ≤ 0.1 | 0.1 to 1
